*1 amine or outer side, *2 acyl side, *3 side chain or, on linkers, in order; H or OH if unused. Where a SMILES comes first, the peptide text is derived from it. Bridges are numbered along the chain shown (N, C = ends). [ ]: non-standard residue; d: D form. NMeY = CN[C@@H](Cc1ccc(O)cc1)C(=O)O; X1 = O=C(CC1(S[*:2])CCCCC1)[*:1]
Legend:
[1] = target: Vasopressin V2 receptor (Rattus norvegicus) (UniProt Q00788); test: Antidiuretic activity in water-loaded rats
[2] = target: Vasopressin V1 receptor (Rattus norvegicus) (UniProt P48974+P30560); test: Dose that reduces blood pressure response in rats; format: functional
Chain of Vasopressin V1 receptor (Rattus norvegicus) (P30560 whole entry, looked up): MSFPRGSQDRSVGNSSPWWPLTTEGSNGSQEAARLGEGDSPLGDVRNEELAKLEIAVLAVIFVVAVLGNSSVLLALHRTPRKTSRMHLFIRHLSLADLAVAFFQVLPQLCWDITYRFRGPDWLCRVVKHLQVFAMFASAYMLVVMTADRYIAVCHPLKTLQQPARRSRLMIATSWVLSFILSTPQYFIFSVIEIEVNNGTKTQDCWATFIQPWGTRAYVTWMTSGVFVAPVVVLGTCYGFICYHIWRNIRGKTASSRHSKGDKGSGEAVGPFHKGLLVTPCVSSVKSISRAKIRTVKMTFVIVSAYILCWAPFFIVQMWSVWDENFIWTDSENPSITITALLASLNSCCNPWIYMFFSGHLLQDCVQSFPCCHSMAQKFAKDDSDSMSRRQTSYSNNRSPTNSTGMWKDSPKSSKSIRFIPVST
Chain of Vasopressin V1 receptor (Rattus norvegicus) (P48974 whole entry, looked up): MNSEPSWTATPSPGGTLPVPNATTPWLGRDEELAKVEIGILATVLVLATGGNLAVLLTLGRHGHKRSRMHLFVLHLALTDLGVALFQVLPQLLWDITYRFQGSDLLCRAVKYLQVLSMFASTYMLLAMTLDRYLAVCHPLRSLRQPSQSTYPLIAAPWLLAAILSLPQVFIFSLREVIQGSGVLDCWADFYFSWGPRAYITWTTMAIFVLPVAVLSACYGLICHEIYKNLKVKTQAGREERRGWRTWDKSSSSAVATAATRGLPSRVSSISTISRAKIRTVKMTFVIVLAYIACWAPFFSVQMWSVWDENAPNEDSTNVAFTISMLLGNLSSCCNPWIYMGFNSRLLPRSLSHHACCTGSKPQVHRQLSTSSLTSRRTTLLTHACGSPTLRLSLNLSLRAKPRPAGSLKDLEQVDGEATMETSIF

[3] = target: Vasopressin V2 receptor (Rattus norvegicus) (UniProt Q00788); test: Dose that reduces urine flow in water-loaded rats; format: functional
[4] = Ratio of antidiuretic V2 effective dose to that of vasopressin V1 effective dose; format: functional, Urine

Chain of Vasopressin V2 receptor (Rattus norvegicus) (Q00788 whole entry): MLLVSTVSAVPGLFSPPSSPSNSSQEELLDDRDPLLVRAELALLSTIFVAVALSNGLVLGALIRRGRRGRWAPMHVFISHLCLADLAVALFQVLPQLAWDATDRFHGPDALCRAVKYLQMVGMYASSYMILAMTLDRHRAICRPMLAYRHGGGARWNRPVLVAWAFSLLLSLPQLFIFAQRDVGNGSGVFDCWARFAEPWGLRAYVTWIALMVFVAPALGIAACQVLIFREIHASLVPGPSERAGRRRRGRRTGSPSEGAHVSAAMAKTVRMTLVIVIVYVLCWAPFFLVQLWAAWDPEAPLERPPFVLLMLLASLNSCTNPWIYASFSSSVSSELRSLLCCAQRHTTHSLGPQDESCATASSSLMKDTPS

Q: With `CN1C(=O)CC2(CCCCC2)SSC[C@H](C(=O)N2CCC[C@H]2C(=O)N[C@@H](CCCN=C(N)N)C(=O)NCC(N)=O)NC(=O)[C@H](CC(N)=O)NC(=O)[C@H](CCC(N)=O)NC(=O)[C@H](Cc2ccccc2)NC(=O)[C@@H]1Cc1ccc(O)cc1` ([NMeY]FQN[dC]PRG-NH2; linker N-5 via X1) as the molecule, how does the Antidiuretic activity [1] read?
A: 0.31 units/mg

Q: What about the Effective dose [2] of the same molecule?
A: 0.16 nM/kg

Q: For `CN1C(=O)CC(C)(C)SSC[C@H](C(=O)N2CCC[C@H]2C(=O)N[C@@H](CCCN=C(N)N)C(=O)N[C@@H](CCCN=C(N)N)C(N)=O)NC(=O)[C@@H](CC(N)=O)NC(=O)[C@H](CCC(N)=O)NC(=O)[C@@H](Cc2ccccc2)NC(=O)[C@@H]1Cc1ccc(O)cc1`, which Antidiuretic activity [1] is on record?
A: 0.083 units/mg

Q: Which Antidiuretic activity [1] does the source give for `CN1C(=O)CC(C)(C)SSC[C@H](C(=O)N2CCC[C@H]2C(=O)N[C@@H](CCCN=C(N)N)C(=O)N[C@@H](Cc2ccc(O)cc2)C(N)=O)NC(=O)[C@@H](CC(N)=O)NC(=O)[C@H](CCC(N)=O)NC(=O)[C@@H](Cc2ccccc2)NC(=O)[C@@H]1Cc1ccc(O)cc1` here?
A: 0.029 units/mg

Q: And the Effective dose [2]?
A: 0.38 nM/kg

Q: Which Effective dose [3] does the source give for `CN1C(=O)CC2(CCCCC2)SSC[C@H](C(=O)N2CCC[C@H]2C(=O)N[C@@H](CCCN=C(N)N)C(=O)NCCN)NC(=O)[C@@H](CC(N)=O)NC(=O)[C@H](CCC(N)=O)NC(=O)[C@@H](Cc2ccccc2)NC(=O)[C@@H]1Cc1ccc(O)cc1` here?
A: 33 nM/kg

Q: And the Effective dose [2]?
A: 0.12 nM/kg

Q: What does the source list for `CN1C(=O)CC2(CCCCC2)SSC[C@H](C(=O)N2CCC[C@H]2C(=O)N[C@@H](CCCN=C(N)N)C(=O)N[C@@H](CCCN=C(N)N)C(N)=O)NC(=O)[C@@H](CC(N)=O)NC(=O)[C@H](CCC(N)=O)NC(=O)[C@@H](Cc2ccccc2)NC(=O)[C@@H]1Cc1ccc(O)cc1`?
A: Effective dose [3]: 18 nM/kg; Ratio [4]: ~150; Effective dose [2]: 0.12 nM/kg

Q: Which Antidiuretic activity [1] does the source give for `CC(C)[C@H](NC(=O)[C@H](CCCN=C(N)N)NC(=O)[C@@H]1CCCN1C(=O)[C@H]1CSSC(C)(C)CC(=O)N(C)[C@@H](Cc2ccc(O)cc2)C(=O)N[C@H](Cc2ccccc2)C(=O)N[C@@H](CCC(N)=O)C(=O)N[C@H](CC(N)=O)C(=O)N1)C(N)=O` here?
A: 0.039 units/mg

Q: What about the Effective dose [2] of the same molecule?
A: 0.6 nM/kg

Q: With `CN1C(=O)CC2(CCCCC2)SSC[C@H](C(=O)N2CCC[C@H]2C(=O)N[C@@H](CCCN=C(N)N)C(=O)NCC(=O)NCCN)NC(=O)[C@@H](CC(N)=O)NC(=O)[C@H](CCC(N)=O)NC(=O)[C@@H](Cc2ccccc2)NC(=O)[C@@H]1Cc1ccc(O)cc1` as the molecule, how does the Effective dose [3] read?
A: 16 nM/kg

Q: What about the Effective dose [2] of the same molecule?
A: 0.27 nM/kg

Source: ChEMBL document CHEMBL1125295, “Synthesis and some pharmacological properties of potent and selective antagonists of the vasopressor (V1-receptor) response to arginine-vasopressin” (J Med Chem, 1992)
